# Assay results from patent US7867750B2, “Method for anaerobic degradation of fuel oxygenates and similar compounds” (Rutgers, The State University of New Jersey, priority 2006, dated 2011).
# “Also recorded” adds a separate entry of the source.
# Assays:
# [1] = test system: sulfate-reducing Arthur Kill enrichment; test: Anaerobic MTBE biodegradation and carbon isotope fractionation, batch experiment; format: cell-based; conditions: 20 mM sodium molybdate, inhibitor of sulfate reduction
# [2] = test system: Coronado Cays sediment microcosms (methanogenic and sulfate-reducing); test: Development of MTBE-degrading enrichments from Coronado Cays sediment microcosms; format: cell-based; conditions: sediment with 5 mM lactate, sodium molybdate present
# MTBE-utilizing culture [3] = test: Effect of methoxylated aromatic compounds as co-substrates on MTBE utilization; format: cell-based; conditions: for lag period of MTBE utilization: 80 μM co-substrate added with MTBE; for effect on MTBE utilization/degradation rate: 80 μM co-substrate, first spiking; for effect on MTBE degradation rate: repeated spiking with MTBE + O-methyl aryl ether
# [4] = MTBE loss in abiotic controls (methanogenic and sulfate-reducing media); format: physicochemical
# Experimental: To examine the carbon isotope fractionation during anaerobic MTBE degradation, eight batch experiments are set up. Four serum bottles, each containing 100 ml of sulfate-reducing AK enrichment, are prepared as described above. Sodium molybdate (20 mM), a specific inhibitor of sulfate reduction, is added to two sulfate-reducing AK cultures. The two remaining cultures are kept under conditions promoting sulfate reduction. From the CC enrichment, two of the 100-ml cultures are prepared for each methanogenic and sulfate-reducing enrichment. Each culture had been enriched individually from separate CC sediment microcosms and had never been combined. Methanogenic and sulfate-reducing media are used as abiotic controls. Anaerobic MTBE stock solution is added to all live enrichments and abiotic controls to a final concentration of 25 to 30 mg liter^−1. […] The headspace MTBE concentrations of the cultures are monitored over time. […]
# The concentration of MTBE is determined by a static headspace method. A 100-μl headspace sample is analyzed for MTBE with a Hewlett-Packard 5890 gas chromatograph (GC) equipped with a DB1 column (0.53 mm by 30 m; J&W Scientific, Folsom, Calif.) and a flame ionization detector with He as the carrier gas. […] For quantification, external aqueous standards of 3.0, 9.0, 15.0, and 30.0 mg liter^−1 for each compound are used. […]
# MTBE-utilizing culture [5] = test: MTBE utilization in the presence of various concentrations of syringate; format: cell-based
compound,measurement,setting,value
"[Na+].[Na+].[O]=[Mo](=[O])([O-])[O-] [molybdate, sodium molybdate]",effect on MTBE utilization rate,[1],decreases drastically
same,effect on sulfate reduction,[2],No significant loss of sulfate
COc1ccccc1O [guaiacol],lag period of MTBE utilization,MTBE-utilizing culture [3],comparable to the culture receiving MTBE alone
same,effect on MTBE utilization/degradation rate,MTBE-utilizing culture [3],adverse effect on MTBE degradation; also recorded: more severe than that of vanillate; also recorded: decrease
same,effect on MTBE degradation rate,MTBE-utilizing culture [3],increased rate of degradation
"COC(C)(C)C [MTBE, Methyl tert-butyl ether]",MTBE loss in abiotic controls,"[4]; both CC experiments, over 60 days",< 10%
same,MTBE lost in abiotic controls,[4]; end of the Arthur Kill experiment,13%
"COc1cc(C(=O)O)ccc1O [vanillate, vanillic acid]",lag period of MTBE utilization,MTBE-utilizing culture [3],comparable to the culture receiving MTBE alone
same,effect on MTBE utilization/degradation rate,MTBE-utilizing culture [3],adverse effect on MTBE degradation; also recorded: decrease
same,effect on MTBE degradation rate,MTBE-utilizing culture [3],increased rate of degradation
"COc1cc(C(=O)O)cc(OC)c1O [syringate, syringic acid]",lag period of MTBE utilization,MTBE-utilizing culture [3],55 days
same,effect on MTBE utilization/degradation rate,MTBE-utilizing culture [3],enhances the MTBE utilization rate
same,effect on MTBE utilization/degradation rate,MTBE-utilizing culture [3]; listed as syringic acid,increased the degradation rate
same,effect on MTBE degradation rate,MTBE-utilizing culture [3],increased rate of degradation
same,effect on MTBE utilization,MTBE-utilizing culture [5]; 50 μM syringate,enhances MTBE utilization
same,time in which MTBE is utilized,MTBE-utilizing culture [5]; 50 μM syringate as co-substrate,less than 80 days
same,effect on MTBE utilization,MTBE-utilizing culture [5]; 100 μM syringate,enhances MTBE utilization
same,effect on MTBE utilization,MTBE-utilizing culture [5]; 500 μM syringate,slightly increases MTBE-degrading activity
same,effect on MTBE utilization,MTBE-utilizing culture [5]; 750 μM syringate,slight inhibitory effect on MTBE utilization
same,effect on MTBE utilization,MTBE-utilizing culture [5]; 1000 μM syringate,limited MTBE utilization
